Experimental data from EP4745137A1 (Gluetacs Therapeutics (Shanghai) Co., Ltd., priority 2023, dated 2025).

Columns and labels:
[1] = target: T1, WEE1 (Homo sapiens, UniProt P30291+Q96SW2); assay: Western-blot assay of substrate protein degradation in hPBMCs, WEE1; format: cell-based; conditions: 24 hours of compound treatment, 50 nM and 500 nM tested (concentration behind the class not stated)
T1 construct: endogenous in cells; host or cells: hPBMCs (Milecell Biotechnologies)

[2] = target: T2, IKZF1 (Homo sapiens, UniProt Q13422+Q96SW2); assay: Western-blot assay of substrate protein degradation in hPBMCs, IKZF1; format: cell-based; conditions: 24 hours of compound treatment, 50 nM and 500 nM tested (concentration behind the class not stated)
T2 construct: endogenous in cells; host or cells: hPBMCs (Milecell Biotechnologies)
T2 sequence (Q13422 whole entry): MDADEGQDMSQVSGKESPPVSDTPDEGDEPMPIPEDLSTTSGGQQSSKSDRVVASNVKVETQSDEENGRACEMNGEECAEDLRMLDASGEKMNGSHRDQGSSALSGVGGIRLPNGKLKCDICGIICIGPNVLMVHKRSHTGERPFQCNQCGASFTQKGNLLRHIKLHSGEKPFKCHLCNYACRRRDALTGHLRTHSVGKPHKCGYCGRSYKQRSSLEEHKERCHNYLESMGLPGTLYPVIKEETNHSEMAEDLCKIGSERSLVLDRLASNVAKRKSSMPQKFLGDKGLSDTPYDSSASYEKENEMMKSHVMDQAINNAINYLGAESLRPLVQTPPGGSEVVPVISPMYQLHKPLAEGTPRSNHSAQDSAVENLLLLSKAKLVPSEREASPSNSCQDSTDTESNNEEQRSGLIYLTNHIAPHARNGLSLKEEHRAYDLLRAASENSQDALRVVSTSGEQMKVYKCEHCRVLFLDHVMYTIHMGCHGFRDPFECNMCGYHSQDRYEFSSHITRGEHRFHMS
T2 sequence (Q96SW2 whole entry): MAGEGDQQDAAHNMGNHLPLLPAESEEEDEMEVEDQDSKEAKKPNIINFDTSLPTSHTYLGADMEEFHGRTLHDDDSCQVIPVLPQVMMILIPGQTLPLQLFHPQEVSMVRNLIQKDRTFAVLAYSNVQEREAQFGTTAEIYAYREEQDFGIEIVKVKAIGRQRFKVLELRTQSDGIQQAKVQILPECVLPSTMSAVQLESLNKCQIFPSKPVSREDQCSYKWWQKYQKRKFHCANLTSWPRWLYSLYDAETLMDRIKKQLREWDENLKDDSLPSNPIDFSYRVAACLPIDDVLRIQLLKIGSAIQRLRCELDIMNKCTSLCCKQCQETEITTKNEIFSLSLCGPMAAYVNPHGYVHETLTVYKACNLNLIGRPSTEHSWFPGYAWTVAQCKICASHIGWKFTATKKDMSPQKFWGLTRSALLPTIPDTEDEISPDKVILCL
T2 sequence (Q16531 whole entry partner): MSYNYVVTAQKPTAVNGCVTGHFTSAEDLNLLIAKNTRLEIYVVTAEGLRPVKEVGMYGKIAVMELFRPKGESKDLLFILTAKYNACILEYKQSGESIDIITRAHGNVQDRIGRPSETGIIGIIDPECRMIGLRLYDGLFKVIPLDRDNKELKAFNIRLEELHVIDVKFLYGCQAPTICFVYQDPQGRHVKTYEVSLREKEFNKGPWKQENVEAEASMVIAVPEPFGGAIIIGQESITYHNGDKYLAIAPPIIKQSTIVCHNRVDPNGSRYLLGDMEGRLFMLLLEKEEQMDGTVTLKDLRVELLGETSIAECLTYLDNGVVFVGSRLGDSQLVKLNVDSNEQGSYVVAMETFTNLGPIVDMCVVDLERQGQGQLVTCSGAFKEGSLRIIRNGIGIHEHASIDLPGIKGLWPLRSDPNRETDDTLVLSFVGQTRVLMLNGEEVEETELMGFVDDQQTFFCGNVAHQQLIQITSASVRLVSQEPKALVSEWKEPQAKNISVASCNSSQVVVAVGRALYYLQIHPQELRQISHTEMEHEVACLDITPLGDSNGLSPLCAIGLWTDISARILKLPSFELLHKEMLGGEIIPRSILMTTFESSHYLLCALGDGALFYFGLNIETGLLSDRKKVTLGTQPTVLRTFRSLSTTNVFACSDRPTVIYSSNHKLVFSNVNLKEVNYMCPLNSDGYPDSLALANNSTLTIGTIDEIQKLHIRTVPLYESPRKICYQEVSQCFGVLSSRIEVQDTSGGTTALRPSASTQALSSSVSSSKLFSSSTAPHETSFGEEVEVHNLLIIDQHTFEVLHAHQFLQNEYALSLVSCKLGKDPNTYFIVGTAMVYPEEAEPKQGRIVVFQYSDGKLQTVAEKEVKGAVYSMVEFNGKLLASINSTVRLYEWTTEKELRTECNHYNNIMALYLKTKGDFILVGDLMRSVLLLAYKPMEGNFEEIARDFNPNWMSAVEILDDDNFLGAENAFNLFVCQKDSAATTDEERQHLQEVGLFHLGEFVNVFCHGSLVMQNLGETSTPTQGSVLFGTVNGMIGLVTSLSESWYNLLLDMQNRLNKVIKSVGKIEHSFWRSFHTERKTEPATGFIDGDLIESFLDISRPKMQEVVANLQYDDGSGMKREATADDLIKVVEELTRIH

[3] = target: T3, IKZF2 (Homo sapiens, UniProt Q96SW2+Q9UKS7); assay: Western-blot assay of substrate protein degradation in hPBMCs, IKZF2; format: cell-based; conditions: 24 hours of compound treatment, 50 nM and 500 nM tested (concentration behind the class not stated)
T3 construct: endogenous in cells; host or cells: hPBMCs (Milecell Biotechnologies)

[4] = target: T4, IKZF3 (Homo sapiens, UniProt Q96SW2+Q9UKT9); assay: Western-blot assay of substrate protein degradation in hPBMCs, IKZF3; format: cell-based; conditions: 24 hours of compound treatment, 50 nM and 500 nM tested (concentration behind the class not stated)
T4 construct: endogenous in cells; host or cells: hPBMCs (Milecell Biotechnologies)
T4 sequence (Q9UKT9 whole entry): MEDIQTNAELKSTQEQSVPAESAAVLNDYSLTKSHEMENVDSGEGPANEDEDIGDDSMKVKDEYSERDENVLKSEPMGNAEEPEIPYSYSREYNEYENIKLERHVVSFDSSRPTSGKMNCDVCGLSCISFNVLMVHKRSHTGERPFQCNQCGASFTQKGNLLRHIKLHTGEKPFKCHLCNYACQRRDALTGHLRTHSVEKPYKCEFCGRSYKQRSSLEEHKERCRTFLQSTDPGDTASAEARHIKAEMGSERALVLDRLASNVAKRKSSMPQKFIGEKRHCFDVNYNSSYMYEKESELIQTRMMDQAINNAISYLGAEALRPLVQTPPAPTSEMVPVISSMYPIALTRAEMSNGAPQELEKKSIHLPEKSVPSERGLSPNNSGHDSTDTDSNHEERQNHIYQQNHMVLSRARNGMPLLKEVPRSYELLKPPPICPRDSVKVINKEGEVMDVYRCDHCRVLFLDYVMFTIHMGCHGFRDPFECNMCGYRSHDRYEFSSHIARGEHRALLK
T4 sequence (Q96SW2 whole entry): as the sequence (Q96SW2 whole entry) above
T4 sequence (Q16531 whole entry partner): as the sequence (Q16531 whole entry partner) above

[5] = target: T5, CK1α (Homo sapiens, UniProt P48729+Q96SW2); assay: Western-blot assay of substrate protein degradation in hPBMCs, CK1α; format: cell-based; conditions: 24 hours of compound treatment, 50 nM and 500 nM tested (concentration behind the class not stated)
T5 construct: endogenous in cells; host or cells: hPBMCs (Milecell Biotechnologies)
T5 sequence (P48729 whole entry): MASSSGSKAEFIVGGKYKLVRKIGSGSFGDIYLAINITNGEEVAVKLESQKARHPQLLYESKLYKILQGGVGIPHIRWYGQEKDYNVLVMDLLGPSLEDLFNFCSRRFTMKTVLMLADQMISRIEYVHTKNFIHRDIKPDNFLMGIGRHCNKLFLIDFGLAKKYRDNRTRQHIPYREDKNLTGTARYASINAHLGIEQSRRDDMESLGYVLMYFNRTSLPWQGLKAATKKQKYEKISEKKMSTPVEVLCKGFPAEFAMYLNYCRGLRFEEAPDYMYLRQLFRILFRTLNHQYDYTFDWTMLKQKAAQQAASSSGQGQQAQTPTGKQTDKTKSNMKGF
T5 sequence (Q96SW2 whole entry): as the sequence (Q96SW2 whole entry) above
T5 sequence (Q16531 whole entry partner): as the sequence (Q16531 whole entry partner) above

[6] = target: T6, GSPT1 (Homo sapiens, UniProt P15170+Q96SW2); assay: Western-blot assay of substrate protein degradation in hPBMCs, GSPT1; format: cell-based; conditions: 24 hours of compound treatment, 50 nM and 500 nM tested (concentration behind the class not stated)
T6 construct: endogenous in cells; host or cells: hPBMCs (Milecell Biotechnologies)
T6 sequence (P15170 whole entry): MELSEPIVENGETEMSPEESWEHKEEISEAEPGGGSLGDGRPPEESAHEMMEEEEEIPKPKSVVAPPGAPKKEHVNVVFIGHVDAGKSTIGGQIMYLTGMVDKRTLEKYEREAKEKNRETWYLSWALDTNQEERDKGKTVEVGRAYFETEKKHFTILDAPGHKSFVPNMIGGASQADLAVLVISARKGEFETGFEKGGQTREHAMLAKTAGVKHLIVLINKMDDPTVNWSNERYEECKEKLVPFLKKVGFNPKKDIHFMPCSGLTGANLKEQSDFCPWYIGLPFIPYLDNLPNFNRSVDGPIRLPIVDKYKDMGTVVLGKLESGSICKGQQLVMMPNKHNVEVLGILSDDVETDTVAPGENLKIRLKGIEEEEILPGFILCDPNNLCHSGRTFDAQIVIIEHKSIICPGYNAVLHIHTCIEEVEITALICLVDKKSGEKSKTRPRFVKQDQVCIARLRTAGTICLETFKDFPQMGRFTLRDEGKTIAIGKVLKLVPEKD
T6 sequence (Q96SW2 whole entry): as the sequence (Q96SW2 whole entry) above
T6 sequence (Q16531 whole entry partner): as the sequence (Q16531 whole entry partner) above

[7] = target: T7, human Cereblon WT GST-tagged protein (Homo sapiens, UniProt Q96SW2); assay: CRBN-binding affinity by HTRF (CEREBLON BINDING kit); conditions: HTRF inhibitory activity, CEREBLON BINDING kit; read-out: HTRF IC50
T7 construct: purchased CISBIO 64BDCRBNPEH
T7 sequence (Q96SW2 whole entry): as the sequence (Q96SW2 whole entry) above

[8] = test system: MV-4-11; assay: Tumor cell proliferation inhibition (CellTiter-Meiluncell Luminescent Cell Viability Assay), MV-4-11; conditions: Homo sapiens, MV4-11, read-out: inhibitory activity (IC50, nM) against tumor cells proliferation, MV-4-11
Description: The tumor cells used herein were cultured in a cell culture medium listed in table 2 at 37°C in an incubator with 5% CO2. Prior to experimentation, all cell lines used were correctly identified by STR profiling, and tested negative for mycoplasma contamination using a mycoplasma detection kit through routine screenings.
On the following day, the test compounds of the present disclosure were subjected to serial dilution. […] Subsequently, 0.5 µL of the test compound dilution was transferred into the 96-well plate containing the cells, with each well containing 100 µL of cell culture medium. […] Into the 96-well plate, the diluted test compounds and corresponding detection reagents were added, resulting in final test compound concentrations of 500 nM and 10 nM, respectively.
After the cells were treated with the compounds of the present disclosure for a specified period (the treatment durations were shown in Table 3), the cell viability assay reagent was added to the culture medium according to the kit's instructions to determine cell viability. […] All controls were treated using the same procedure as the compounds of the present disclosure. The growth inhibition curves for the compounds of the present disclosure were plotted using Prism GraphPad software, and the IC50 values were calculated therefrom.

[9] = test system: Human acute T lymphocytic leukemia cells (Molt-4); assay: Tumor cell proliferation inhibition (CellTiter-Meiluncell Luminescent Cell Viability Assay), Molt-4; conditions: MOLT-4, read-out: inhibitory activity (IC50, nM) against tumor cells proliferation, Molt-4
[10] = test system: CCRF-CEM; assay: Tumor cell proliferation inhibition (CellTiter-Meiluncell Luminescent Cell Viability Assay), CCRF-CEM; conditions: Homo sapiens, read-out: inhibitory activity (IC50, nM) against tumor cells proliferation, CCRF-CEM

T1 sequence (P30291 whole entry): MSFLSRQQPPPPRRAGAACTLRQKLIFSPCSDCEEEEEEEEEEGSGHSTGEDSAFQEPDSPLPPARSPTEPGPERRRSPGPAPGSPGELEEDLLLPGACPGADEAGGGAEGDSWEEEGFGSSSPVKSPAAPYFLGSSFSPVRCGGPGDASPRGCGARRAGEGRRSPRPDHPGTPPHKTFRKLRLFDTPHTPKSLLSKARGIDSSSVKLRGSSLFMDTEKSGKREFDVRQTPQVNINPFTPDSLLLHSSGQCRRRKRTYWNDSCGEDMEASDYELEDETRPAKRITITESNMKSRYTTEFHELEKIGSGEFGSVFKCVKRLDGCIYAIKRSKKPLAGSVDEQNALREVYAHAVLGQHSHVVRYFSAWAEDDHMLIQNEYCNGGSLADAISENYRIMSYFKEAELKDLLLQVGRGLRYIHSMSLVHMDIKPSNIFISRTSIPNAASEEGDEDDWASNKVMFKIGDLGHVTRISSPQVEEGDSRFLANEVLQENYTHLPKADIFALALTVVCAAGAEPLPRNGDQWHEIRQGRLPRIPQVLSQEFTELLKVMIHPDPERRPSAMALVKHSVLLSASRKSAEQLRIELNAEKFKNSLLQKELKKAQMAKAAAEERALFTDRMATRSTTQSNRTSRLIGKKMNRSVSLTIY
T1 sequence (Q96SW2 whole entry): as the sequence (Q96SW2 whole entry) above
T1 sequence (Q16531 whole entry partner): as the sequence (Q16531 whole entry partner) above

Structure (SMILES)	Weel substrate protein remaining % [1]	IKZF 1 substrate protein remaining % [2]	IKZF2 substrate protein remaining % [3]	IKZF3 substrate protein remaining % [4]	CK1a substrate protein remaining % [5]	GSPT1 substrate protein remaining % [6]	IC50 [7]	IC50 [8]	IC50 [9]	IC50 [10]
O=C1CCC(N2C(=O)c3ccc(CN4CCN(c5nc(N6CCOCC6)c6sccc6n5)CC4)cc3C2=O)C(=O)N1 (centres unmarked) [GT-06718, 2-(2,6-dioxopiperidin-3-yl)-5-((4-(4-morpholinothieno[3,2-d]pyrimidin-2-yl)piperazin-1-yl)methyl)isoindoline-1,3-dione]	B (80%< substrate protein remaining %≤ 100%)	B (80%< substrate protein remaining %≤ 100%)	B (80%< substrate protein remaining %≤ 100%)	B (80%< substrate protein remaining %≤ 100%)	B (80%< substrate protein remaining %≤ 100%)	A (0% ≤ substrate protein remaining % ≤ 80%)	1000 to 1500 nM	100 to 500 nM	–	–
Cc1nc(C2=CCN(Cc3ccc4c(c3)C(=O)N(C3CCC(=O)NC3=O)C4=O)CC2)c2c3c(sc2n1)CCCC3 (centres unmarked) [GT-06679, 2-(2,6-dioxopiperidin-3-yl)-5-((4-(2-methyl-5,6,7,8-tetrahydrobenzo[4,5]thieno[2,3-d]pyrimidin-4-yl)-3,6-dihydropyridin-1(2H)-yl)methyl)isoindoline-1,3-dione]	A (0% ≤ substrate protein remaining % ≤ 80%)	B (80%< substrate protein remaining %≤ 100%)	B (80%< substrate protein remaining %≤ 100%)	A (0% ≤ substrate protein remaining % ≤ 80%)	B (80%< substrate protein remaining %≤ 100%)	B (80%< substrate protein remaining %≤ 100%)	1500 to 1900 nM	100 to 500 nM	–	–
O=C1CCC(N2C(=O)c3ccc(CN4CC=C(c5ncnc6sc7c(c56)CCC7)CC4)cc3C2=O)C(=O)N1 (centres unmarked) [GT-06681, 5-((4-(6,7-dihydro-5H-cyclopenta[4,5]thieno[2,3-d]pyrimidin-4-yl)-3,6-dihydropyridin-1(2H)-yl)methyl)-2-(2,6-dioxopiperidin-3-yl)isoindoline-1,3-dione]	A (0% ≤ substrate protein remaining % ≤ 80%)	A (0% ≤ substrate protein remaining % ≤ 80%)	A (0% ≤ substrate protein remaining % ≤ 80%)	A (0% ≤ substrate protein remaining % ≤ 80%)	B (80%< substrate protein remaining %≤ 100%)	A (0% ≤ substrate protein remaining % ≤ 80%)	1500 to 1900 nM	500 to 1000 nM	–	–
O=C1CCC(N2C(=O)c3ccc(CN4CC=C(c5ncccc5F)CC4)cc3C2=O)C(=O)N1 (centres unmarked) [GT-06612, 2-(2,6-dioxopiperidin-3-yl)-5-((3-fluoro-3',6'-dihydro-[2,4'-bipyridin]-1'(2'H)-yl)methyl)isoindoline-1,3-dione]	A (0% ≤ substrate protein remaining % ≤ 80%)	A (0% ≤ substrate protein remaining % ≤ 80%)	A (0% ≤ substrate protein remaining % ≤ 80%)	A (0% ≤ substrate protein remaining % ≤ 80%)	A (0% ≤ substrate protein remaining % ≤ 80%)	A (0% ≤ substrate protein remaining % ≤ 80%)	–	500 to 1000 nM	500 to 1000 nM	500 to 1000 nM
O=C1CCC(N2C(=O)c3ccc(CN4CC=C(c5c[nH]c6ncccc56)CC4)cc3C2=O)C(=O)N1 (centres unmarked) [GT-06706, 5-((4-(1H-pyrrolo[2,3-b]pyridin-3-yl)-3,6-dihydropyridin-1(2H)-yl)methyl)-2-(2,6-dioxopiperidin-3-yl)isoindoline-1,3-dione]	A (0% ≤ substrate protein remaining % ≤ 80%)	A (0% ≤ substrate protein remaining % ≤ 80%)	A (0% ≤ substrate protein remaining % ≤ 80%)	A (0% ≤ substrate protein remaining % ≤ 80%)	A (0% ≤ substrate protein remaining % ≤ 80%)	A (0% ≤ substrate protein remaining % ≤ 80%)	–	100 to 500 nM	500 to 1000 nM	500 to 1000 nM
O=C1CCC(N2C(=O)c3ccc(CN4CC=C(c5cncc(Cl)c5)CC4)cc3C2=O)C(=O)N1 (centres unmarked) [GT-06611, 5-((5-chloro-3',6'-dihydro-[3,4'-bipyridin]-1'(2'H)-yl)methyl)-2-(2,6-dioxopiperidin-3-yl)isoindoline-1,3-dione]	A (0% ≤ substrate protein remaining % ≤ 80%)	A (0% ≤ substrate protein remaining % ≤ 80%)	A (0% ≤ substrate protein remaining % ≤ 80%)	A (0% ≤ substrate protein remaining % ≤ 80%)	A (0% ≤ substrate protein remaining % ≤ 80%)	A (0% ≤ substrate protein remaining % ≤ 80%)	–	100 to 500 nM	500 to 1000 nM	100 to 500 nM
O=C1CCC(N2C(=O)c3ccc(CN4C5CCC4CN(c4cccc(Cl)c4Cl)C5)cc3C2=O)C(=O)N1 (centres unmarked) [GT-06694, 5-((3-(2,3-dichlorophenyl)-3,8-diazabicyclo[3.2.1]octan-8-yl)methyl)-2-(2,6-dioxopiperidin-3-yl)isoindoline-1,3-dione]	A (0% ≤ substrate protein remaining % ≤ 80%)	B (80%< substrate protein remaining %≤ 100%)	A (0% ≤ substrate protein remaining % ≤ 80%)	B (80%< substrate protein remaining %≤ 100%)	B (80%< substrate protein remaining %≤ 100%)	A (0% ≤ substrate protein remaining % ≤ 80%)	–	100 to 500 nM	500 to 1000 nM	500 to 1000 nM
O=C1CCC(N2C(=O)c3ccc(CN4CCN(c5cc(Cl)nnc5Cl)CC4)cc3C2=O)C(=O)N1 (centres unmarked) [GT-06625, 5-((4-(3,6-dichloropyridazin-4-yl)piperazin-1-yl)methyl)-2-(2,6-dioxopiperidin-3-yl)isoindoline-1,3-dione]	B (80%< substrate protein remaining %≤ 100%)	B (80%< substrate protein remaining %≤ 100%)	B (80%< substrate protein remaining %≤ 100%)	B (80%< substrate protein remaining %≤ 100%)	B (80%< substrate protein remaining %≤ 100%)	A (0% ≤ substrate protein remaining % ≤ 80%)	–	100 to 500 nM	–	–
O=C1CCC(N2C(=O)c3ccc(CN4CCN(c5nccc(Cl)c5Br)CC4)cc3C2=O)C(=O)N1 (centres unmarked) [GT-06601, 5-((4-(3-bromo-4-chloropyridin-2-yl)piperazin-1-yl)methyl)-2-(2,6-dioxopiperidin-3-yl)isoindoline-1,3-dione]	B (80%< substrate protein remaining %≤ 100%)	B (80%< substrate protein remaining %≤ 100%)	B (80%< substrate protein remaining %≤ 100%)	B (80%< substrate protein remaining %≤ 100%)	B (80%< substrate protein remaining %≤ 100%)	A (0% ≤ substrate protein remaining % ≤ 80%)	–	100 to 500 nM	–	–
